{"source": "patent US20070111216A1", "about": "(priority 2004, published 2007)", "format_in_all_cases": "biochemical", "key": {"[1]": {"target": "T1, E. coli RNA Polymerase Core Enzyme (Escherichia coli, UniProt P0A8T7+P0A8V2)", "T1 construct": "purchased EPICENTRE", "T1 sequence (P0A8V2 whole entry)": "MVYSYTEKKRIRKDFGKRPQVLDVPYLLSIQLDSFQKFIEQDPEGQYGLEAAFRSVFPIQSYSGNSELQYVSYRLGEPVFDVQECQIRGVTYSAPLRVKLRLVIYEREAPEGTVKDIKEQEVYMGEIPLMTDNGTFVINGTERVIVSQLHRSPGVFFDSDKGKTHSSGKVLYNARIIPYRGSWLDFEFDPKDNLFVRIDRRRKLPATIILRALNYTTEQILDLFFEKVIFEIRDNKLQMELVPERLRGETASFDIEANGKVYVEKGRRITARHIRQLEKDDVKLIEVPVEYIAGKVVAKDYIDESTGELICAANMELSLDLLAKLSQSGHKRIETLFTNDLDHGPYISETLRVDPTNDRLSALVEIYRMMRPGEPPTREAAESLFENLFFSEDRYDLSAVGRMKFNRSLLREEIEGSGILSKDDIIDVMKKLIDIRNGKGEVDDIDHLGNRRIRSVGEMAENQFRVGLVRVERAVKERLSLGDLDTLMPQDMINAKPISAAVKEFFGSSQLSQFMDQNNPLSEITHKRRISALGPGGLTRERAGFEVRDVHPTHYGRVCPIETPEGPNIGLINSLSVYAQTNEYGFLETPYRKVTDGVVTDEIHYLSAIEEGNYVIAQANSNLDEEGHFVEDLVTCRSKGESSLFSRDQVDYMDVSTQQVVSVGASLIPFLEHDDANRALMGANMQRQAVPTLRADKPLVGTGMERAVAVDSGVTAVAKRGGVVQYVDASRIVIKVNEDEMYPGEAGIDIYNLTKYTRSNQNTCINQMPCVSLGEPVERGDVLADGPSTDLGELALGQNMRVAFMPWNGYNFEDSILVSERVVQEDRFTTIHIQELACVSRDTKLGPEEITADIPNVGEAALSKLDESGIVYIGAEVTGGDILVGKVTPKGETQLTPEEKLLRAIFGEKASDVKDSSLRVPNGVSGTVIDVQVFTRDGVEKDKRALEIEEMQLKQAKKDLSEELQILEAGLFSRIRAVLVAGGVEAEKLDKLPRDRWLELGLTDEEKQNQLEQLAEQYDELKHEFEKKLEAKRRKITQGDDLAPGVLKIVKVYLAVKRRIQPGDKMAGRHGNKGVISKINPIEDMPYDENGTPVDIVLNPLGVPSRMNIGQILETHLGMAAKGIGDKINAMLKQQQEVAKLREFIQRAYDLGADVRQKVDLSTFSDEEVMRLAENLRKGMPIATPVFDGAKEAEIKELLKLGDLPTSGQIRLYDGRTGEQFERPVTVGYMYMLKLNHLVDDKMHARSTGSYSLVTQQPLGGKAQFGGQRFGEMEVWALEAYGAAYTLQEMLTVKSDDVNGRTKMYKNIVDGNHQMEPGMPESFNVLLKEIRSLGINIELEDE", "T1 sequence (P0A8T7 whole entry)": "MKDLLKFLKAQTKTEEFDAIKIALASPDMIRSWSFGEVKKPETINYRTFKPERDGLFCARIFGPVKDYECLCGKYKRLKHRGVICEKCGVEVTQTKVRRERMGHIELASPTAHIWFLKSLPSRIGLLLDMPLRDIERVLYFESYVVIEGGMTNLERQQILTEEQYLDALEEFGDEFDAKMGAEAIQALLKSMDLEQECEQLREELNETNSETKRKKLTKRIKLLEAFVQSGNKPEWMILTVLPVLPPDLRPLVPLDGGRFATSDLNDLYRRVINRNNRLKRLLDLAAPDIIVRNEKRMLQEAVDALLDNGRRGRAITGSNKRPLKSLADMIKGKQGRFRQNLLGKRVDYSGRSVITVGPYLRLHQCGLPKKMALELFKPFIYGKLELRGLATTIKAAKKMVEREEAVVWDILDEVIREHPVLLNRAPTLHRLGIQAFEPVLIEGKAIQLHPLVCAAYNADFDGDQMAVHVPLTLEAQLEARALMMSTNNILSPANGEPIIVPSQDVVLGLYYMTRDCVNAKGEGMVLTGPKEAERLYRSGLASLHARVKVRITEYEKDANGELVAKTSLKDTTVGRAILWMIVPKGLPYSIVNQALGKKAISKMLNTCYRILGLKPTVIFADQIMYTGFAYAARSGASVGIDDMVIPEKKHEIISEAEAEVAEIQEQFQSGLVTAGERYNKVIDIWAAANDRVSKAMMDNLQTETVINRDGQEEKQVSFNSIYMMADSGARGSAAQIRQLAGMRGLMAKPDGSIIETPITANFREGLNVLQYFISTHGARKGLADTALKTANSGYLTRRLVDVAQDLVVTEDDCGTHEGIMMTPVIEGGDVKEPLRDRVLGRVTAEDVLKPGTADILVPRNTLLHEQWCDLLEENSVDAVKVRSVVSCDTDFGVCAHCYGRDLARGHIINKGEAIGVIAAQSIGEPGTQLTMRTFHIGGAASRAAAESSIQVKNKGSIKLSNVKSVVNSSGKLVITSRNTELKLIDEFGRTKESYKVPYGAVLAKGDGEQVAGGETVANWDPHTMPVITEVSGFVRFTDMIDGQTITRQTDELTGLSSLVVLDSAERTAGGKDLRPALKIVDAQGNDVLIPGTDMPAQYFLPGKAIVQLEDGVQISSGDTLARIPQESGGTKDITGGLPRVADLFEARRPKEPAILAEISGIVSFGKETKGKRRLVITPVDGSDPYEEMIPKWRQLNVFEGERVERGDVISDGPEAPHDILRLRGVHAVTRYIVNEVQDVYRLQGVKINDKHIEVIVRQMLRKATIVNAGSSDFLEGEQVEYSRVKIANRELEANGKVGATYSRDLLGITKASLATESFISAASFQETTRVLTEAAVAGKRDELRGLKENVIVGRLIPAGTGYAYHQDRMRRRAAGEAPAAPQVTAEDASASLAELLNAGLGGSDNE", "T1 sequence (P0A7Z4 whole entry partner)": "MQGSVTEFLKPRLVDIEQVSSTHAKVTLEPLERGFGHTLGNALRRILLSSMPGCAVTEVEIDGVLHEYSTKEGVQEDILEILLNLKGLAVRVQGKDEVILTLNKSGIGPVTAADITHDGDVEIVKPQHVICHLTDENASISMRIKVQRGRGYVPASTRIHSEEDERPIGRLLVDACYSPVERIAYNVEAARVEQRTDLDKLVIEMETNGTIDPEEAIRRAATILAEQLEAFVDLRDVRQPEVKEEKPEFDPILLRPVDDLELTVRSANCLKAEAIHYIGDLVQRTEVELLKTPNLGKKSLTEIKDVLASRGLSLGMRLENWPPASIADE", "T1 sequence (P0A800 2-91 partner limits assumed)": "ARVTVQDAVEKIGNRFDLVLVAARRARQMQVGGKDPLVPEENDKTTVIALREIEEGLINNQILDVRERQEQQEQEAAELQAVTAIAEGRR", "assay": "Rolling circle transcription on circular 45mer ssDNA monitored in real time (SYBR Gold) and by gel electrophoresis", "settings": "20 μg/ml α-amanitin, 10 min preincubation at 37° C., 0.5 mM each NTP, about 1.5 hours (FIG. 4)", "procedure": "A single-stranded circularized 45mer DNA molecule having the same sequence as the circular 45mer used in Example 1 (Sequence I.D. No. 1) was obtained.\nA reaction mixture was prepared containing 0.5 units of E. coli RNA Polymerase Core Enzyme, and a reaction buffer. The reaction mixture was incubated in the presence of 1 μM rifampicin, 20 U TAGETIN (Epicentre Biotechnologies), or 20 μg/ml α-amanitin for 10 min at 37° C. Subsequently, 0.8 pmole of the circularized 45mer DNA oligomer were added to the reaction mixture followed by incubation for 5 min at 37° C. Then SYBR Gold (Molecular Probes), which had been diluted 1:20,000, was added. Subsequently, ATP, CTP, GTP and UTP were added such that the concentration of each NTP was 0.5 mM in the final reaction mixture. Fluorescence was measured for about 1.5 hours in an iCycler iQ real-time PCR detection system (Bio-Rad Laboratories) using 490 nm excitation and 530 nm emission wavelengths. Afterwards, the reaction products were analyzed by gel electrophoresis."}, "[2]": {"target": "T2, E. coli RNA polymerase Holoenzyme (Escherichia coli, UniProt P0A8T7+P0A8V2)", "T2 construct": "purchased EPICENTRE", "assay": "Rolling circle transcription on circular 38mer ssDNA, products visualized by agarose gel electrophoresis", "settings": "37° C. for 2 hours, 0.5 mM each NTP, concentration of inhibitor not printed (FIG. 2)", "method": "(§1) A single-stranded circularized 38mer DNA molecule having the same sequence as the circular 38mer used in Example 2 (Sequence I.D. No. 2) was obtained.\n(§2) A reaction mixture was prepared comprising 5 pmoles of the circularized 38mer DNA molecule, 1 unit of E. coli RNA Polymerase Holoenzyme (EPICENTRE) or of soy germ RNA polymerase II, 0.5 mM of each NTP and a reaction buffer. The reaction mixture was incubated at 37° C. for 2 hours in the presence or absence of rifampicin or α-amanitin. The reaction products were visualized by agarose gel electrophoresis."}, "[3]": {"test_system": "soy germ RNA polymerase II", "assay": "Rolling circle transcription on circular 38mer ssDNA, products visualized by agarose gel electrophoresis", "settings": "37° C. for 2 hours, 0.5 mM each NTP, concentration of inhibitor not printed (FIG. 2)", "method": "as §1, §2"}}}
{"smiles": "CC[C@H](C)[C@@H]1NC(=O)CNC(=O)[C@@H]2Cc3c([nH]c4cc(O)ccc34)[S+]([O-])C[C@@H](NC(=O)CNC1=O)C(=O)N[C@@H](CC(N)=O)C(=O)N1C[C@H](O)C[C@H]1C(=O)N[C@@H]([C@@H](C)[C@@H](O)CO)C(=O)N2", "note": "(stereo in doubt) [α-amanitin]", "values": [{"measurement": "RNA synthesis in the presence of inhibitor", "setting": "[1]", "value": "RNA was synthesized"}, {"measurement": "Inhibition of RNA polymerase activity", "setting": "[2]", "value": "no inhibition"}, {"measurement": "Inhibition of RNA polymerase activity", "setting": "[3]", "value": "Inhibitory effects"}]}
